Test results taken from US8618299B2, “Azinone-substituted azapolycycle MCH-1 antagonists, methods of making, and use thereof” (Albany Molecular Research, Inc., priority 2009, dated 2013).

How the values were obtained:
human MCH-1 receptor = human MCH-1 receptor (Homo sapiens (Human), UniProt Q99705); experiment: Binding assay for human melanin-concentrating hormone (MCH1) receptor; settings: membranes from CHO-K1 cells expressing human MCH1 receptor; 1.4 nM [3H]-labeled radioligand, 60 min at 25° C., pH 7.4; Ki from Cheng Prusoff equation
Experimental: Binding Assay for Human Melanin-Concentrating Hormone (MCH1) Receptor
Evaluation of the affinity of compounds for the human MCH-1 receptor was accomplished using 4-(3,4,5-tritritiumbenzyloxy)-1-(1-(2-(pyrrolidin-1-yl)ethyl)-1H-indazol-5-yl)pyridin-2(1H)-one and membranes prepared from stable CHO-K1 cells expressing the human MCH1 receptor obtained from Euroscreen (Batch 1138). Cell membrane homogenates (8.92 μg protein) were incubated for 60 min at 25° C. with 1.4 nM of the [^3H]-labeled compound in the absence or presence of the test compound in 50 mM Tris-HCl buffer, pH 7.4. Nonspecific binding was determined in the presence of 50 μM 1-(5-(4-cyanophenyl)bicyclo[3.1.0]hexan-2-yl)-3-(4-fluoro-3-(trifluoromethyl)phenyl)-1-(3-(4-methylpiperazin-1-yl)propyl)urea. Following incubation, the samples were filtered rapidly under vacuum through Skatron 11731 filters, pre-soaked in 0.5% polyethylenimine, and washed with ice-cold 50 mM Tris-HCl buffer, pH 7.4, (wash setting 9,9,0) using a Skatron cell harvester. The filters were counted for radioactivity in a liquid scintillation counter (Tri-Carb 2100TR, Packard) using a scintillation cocktail (Ultima Gold MV, Perkin Elmer).
The results are expressed as a percent inhibition of the control radioligand specific binding. The IC50 value (concentration causing a half-maximal inhibition of control specific binding) and Hill coefficient (nH) were determined by non-linear regression analysis of the competition curve using Hill equation curve fitting. The inhibition constant (Ki) was calculated from the Cheng Prusoff equation: (Ki=IC50/(1+(L/KD)), where L=concentration of radioligand in the assay, and KD=affinity of the radioligand for the receptor.

human MCH-1 receptor, sequence (Q99705 whole entry): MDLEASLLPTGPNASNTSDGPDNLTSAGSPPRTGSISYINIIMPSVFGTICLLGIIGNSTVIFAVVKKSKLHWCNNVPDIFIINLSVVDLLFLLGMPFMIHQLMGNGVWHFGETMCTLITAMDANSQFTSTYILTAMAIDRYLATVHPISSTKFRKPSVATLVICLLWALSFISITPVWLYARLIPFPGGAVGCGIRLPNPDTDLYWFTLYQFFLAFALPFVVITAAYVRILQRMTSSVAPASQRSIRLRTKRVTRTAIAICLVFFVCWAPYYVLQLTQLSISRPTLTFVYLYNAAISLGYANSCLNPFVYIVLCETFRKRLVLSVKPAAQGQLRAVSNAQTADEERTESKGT

| Compound | Ki (human MCH-1 receptor) [nM] | melting point [°C] |
| --- | --- | --- |
| Cl.O=c1cc(OCc2ccc(F)cc2F)ccn1-c1ccc2c3c([nH]c2c1)CCN1CCCC31 (stereo not drawn) [Example 28, 4-(2,4-difluorobenzyloxy)-1-(2,3,5,6,7,11c-hexahydro-1H-indolizino[7,8-b]indol-9-yl)pyridin-2(1H)-one Hydrochloride] | 12 | 210 to 220 |
| Cl.O=c1cc(OCc2ccccc2)ccn1-c1ccc2c3c([nH]c2c1)CC1CCCCN1C3 (stereo not drawn) [Example 29, 4-(Benzyloxy)-1-(5,6,6a,7,8,9,10,12-octahydroindolo[2,3-b]quinolizin-3-yl)-pyridin-2(1H)-one Hydrochloride] | 8.5 | 270 to 273 |
| Cl.Cn1c2c(c3ccc(-n4ccc(OCc5ccc(C(F)(F)F)nc5)cc4=O)cc31)CN1CCCC1C2 (stereo not drawn) [Example 32, 1-(10-Methyl-2,3,5,10,11,11a-hexahydro-1H-indolizino[7,6-b]indol-8-yl)-4-((6-(trifluoromethyl)pyridin-3-yl)methoxy)pyridin-2(1H)-one Hydrochloride] | 24 | 255 to 259 |
| Cl.Cn1c2c(c3ccc(-n4ccc(OCc5ccc(C(F)(F)F)nc5)cc4=O)cc31)CN1CCCCC1C2 (stereo not drawn) [Example 34, 1-(5-Methyl-5,6,6a,7,8,9,10,12-octahydroindolo[2,3-b]quinolizin-3-yl)-4-((6-(trifluoromethyl)pyridin-3-yl)methoxy)pyridin-2(1H)-one Hydrochloride] | 24 | 260 to 262 |
| Cl.Cn1c2c(c3ccc(-n4ccc(OCc5ccccc5)cc4=O)nc31)C1CCCN1CC2 (stereo not drawn) [Example 44, 4-(Benzyloxy)-1-(7-methyl-2,3,5,6,7,11c-hexahydro-1H-pyrido[3′,2′:4,5]pyrrolo[2,3-g]indolizin-9-yl)pyridin-2(1H)-one Hydrochloride] | 12 | 130 to 140 |
| Cl.Cn1c2c(c3ccc(-n4ccc(OCc5ccc(F)cc5F)cc4=O)nc31)C1CCCN1CC2 (stereo not drawn) [Example 46, 4-(2,4-Difluorobenzyloxy)-1-(7-methyl-2,3,5,6,7,11c-hexahydro-1H-pyrido[3′,2′:4,5]pyrrolo[2,3-g]indolizin-9-yl)pyridin-2(1H)-one Hydrochloride] | 16 | 134 to 145 |
| Cl.Cn1c2c(c3ccc(-n4ccc(OCc5ccc(Cl)cc5F)cc4=O)nc31)C1CCCN1CC2 (stereo not drawn) [Example 47, 4-(4-Chloro-2-fluorobenzyloxy)-1-(7-methyl-2,3,5,6,7,11c-hexahydro-1H-pyrido[3′,2′:4,5]pyrrolo[2,3-g]indolizin-9-yl)pyridin-2(1H)-one Hydrochloride] | 10 | 150 to 160 |
| Cl.Cn1c2c(c3ccc(-n4ccc(-c5ccc(C(F)(F)F)nc5)cc4=O)nc31)C1CCCN1CC2 (stereo not drawn) [Example 48, 1-(7-Methyl-2,3,5,6,7,11c-hexahydro-1H-pyrido[3′,2′:4,5]pyrrolo[2,3-g]indolizin-9-yl)-4-(6-(trifluoromethyl)pyridin-3-yl)pyridin-2(1H)-one Hydrochloride] | 47 | 290 to 300 |
| Cl.Cn1c2c(c3ccc(-n4ccc(OCc5ccccc5)cc4=O)nc31)CN1CCCC1C2 (stereo not drawn) [Example 50, 4-(Benzyloxy)-1-(11-methyl-5,7,8,9,9a,10-hexahydro-11H-pyrido[3′,2′:4,5]pyrrolo[3,2-f]indolizin-2-yl)pyridin-2(1H)-one Hydrochloride] | 16 | 240 to 250 |
| Cl.Cn1c2c(c3ccc(-n4ccc(OCc5ccc(F)cn5)cc4=O)nc31)CN1CCCC1C2 (stereo not drawn) [Example 51, 4-((5-Fluoropyridin-2-yl)methoxy)-1-(11-methyl-5,7,8,9,9a,10-hexahydro-11H-pyrido[3′,2′:4,5]pyrrolo[3,2-f]indolizin-2-yl)pyridin-2(1H)-one Hydrochloride] | 37 | 220 to 230 |
| Cl.Cn1c2c(c3ccc(-n4ccc(-c5ccc(C(F)(F)F)nc5)cc4=O)nc31)CN1CCCC1C2 (stereo not drawn) [Example 53, 1-(11-Methyl-5,7,8,9,9a,10-hexahydro-11H-pyrido[3′,2′:4,5]pyrrolo[3,2-f]indolizin-2-yl)-4-(6-(trifluoromethyl)pyridin-3-yl)pyridin-2(1H)-one Hydrochloride] | 33 | 280 to 290 |
| Cl.Cn1c2c(c3ccc(-n4ccc(OCc5ccc(Cl)cc5F)cc4=O)nc31)CN1CCCC1C2 (stereo not drawn) [Example 54, 4-(4-Chloro-2-fluorobenzyloxy)-1-(11-methyl-5,7,8,9,9a,10-hexahydro-11H-pyrido[3′,2′:4,5]pyrrolo[3,2-f]indolizin-2-yl)pyridin-2(1H)-one Hydrochloride] | 26 | 210 to 220 |
| Cl.Cn1c2c(c3ccc(-n4ccc(OCc5ccc(F)cc5F)cc4=O)nc31)CN1CCCC1C2 (stereo not drawn) [Example 55, 4-(2,4-Difluorobenzyloxy)-1-(11-methyl-5,7,8,9,9a,10-hexahydro-11H-pyrido[3′,2′:4,5]pyrrolo[3,2-f]indolizin-2-yl)pyridin-2(1H)-one Hydrochloride] | 31 | 140 to 150 |
| Cl.Cn1c2c(c3ccc(-n4ccc(OCc5ncc(F)cc5F)cc4=O)nc31)CN1CCCC1C2 (stereo not drawn) [Example 56, 4-((3,5-Difluoropyridin-2-yl)methoxy)-1-(11-methyl-5,7,8,9,9a,10-hexahydro-11H-pyrido[3′,2′:4,5]pyrrolo[3,2-f]indolizin-2-yl)pyridin-2(1H)-one Hydrochloride] | 121 | 220 to 230 |

Results, then the compound that gave them:

| Ki (human MCH-1 receptor) [nM] | melting point [°C] | Compound |
| --- | --- | --- |
| 34 | 205 to 215 | Cl.O=c1cc(-c2ccc(C(F)(F)F)nc2)ccn1-c1ccc2c3c([nH]c2c1)CCN1CCCC31 (stereo not drawn) [Example 27, 1-(2,3,5,6,7,11c-Hexahydro-1H-indolizino[7,8-b]indol-9-yl)-4-(6-(trifluoromethyl)pyridin-3-yl)pyridin-2(1H)-one Hydrochloride] |
| 8.3 | 290 to 293 | Cl.Cn1c2c(c3ccc(-n4ccc(-c5ccc(C(F)(F)F)nc5)cc4=O)cc31)CN1CCCC1C2 (stereo not drawn) [Example 30, 1-(10-Methyl-2,3,5,10,11,11a-hexahydro-1H-indolizino[7,6-b]indol-8-yl)-4-(6-(trifluoromethyl)pyridin-3-yl)pyridin-2(1H)-one Hydrochloride] |
| 7 | 245 to 248 | Cl.Cn1c2c(c3ccc(-n4ccc(-c5ccc(C(F)(F)F)nc5)cc4=O)cc31)CN1CCCCC1C2 (stereo not drawn) [Example 36, 1-(5-Methyl-5,6,6a,7,8,9,10,12-octahydroindolo[2,3-b]quinolizin-3-yl)-4-(6-(trifluoromethyl)pyridin-3-yl)pyridin-2(1H)-one Hydrochloride] |
| 8.5 | 275 to 285 | Cl.O=c1cc(-c2ccc(C(F)(F)F)cc2)ccn1-c1ccc2c3c([nH]c2c1)CC1CCCN1C3 (stereo not drawn) [Example 39, 1-(2,3,5,10,11,11a-Hexahydro-1H-indolizino[7,6-b]indol-8-yl)-4-(4-(trifluoromethyl)phenyl)pyridin-2(1H)-one Hydrochloride] |
| 14 | 275 to 285 | Cl.O=c1cc(-c2ccc(C(F)(F)F)nc2)ccn1-c1ccc2c3c([nH]c2c1)CC1CCCN1C3 (stereo not drawn) [Example 41, 1-(2,3,5,10,11,11a-Hexahydro-1H-indolizino[7,6-b]indol-8-yl)-4-(6-(trifluoromethyl)pyridin-3-yl)pyridin-2(1H)-one Hydrochloride] |
| 15 | 190 to 200 | Cl.Cn1c2c(c3ccc(-n4ccc(-c5ccc(C(F)(F)F)cc5)cc4=O)nc31)C1CCCN1CC2 (stereo not drawn) [Example 49, 1-(7-Methyl-2,3,5,6,7,11c-hexahydro-1H-pyrido[3′,2′:4,5]pyrrolo[2,3-g]indolizin-9-yl)-4-(4-(trifluoromethyl)phenyl)pyridin-2(1H)-one Hydrochloride] |
| 17 | 300 to 305 | Cl.Cn1c2c(c3ccc(-n4ccc(-c5ccc(C(F)(F)F)cc5)cc4=O)nc31)CN1CCCC1C2 (stereo not drawn) [Example 52, 1-(11-Methyl-5,7,8,9,9a,10-hexahydro-11H-pyrido[3′,2′:4,5]pyrrolo[3,2-f]indolizin-2-yl)-4-(4-(trifluoromethyl)phenyl)pyridin-2(1H)-one Hydrochloride] |
